# Measurements reported in ChEMBL document CHEMBL1137050, “Design and synthesis of 4-phenyl piperidine compounds targeting the mu receptor” (Bioorg Med Chem Lett, 2004).
# Biological target: T1, Nociceptin receptor (Homo sapiens, UniProt P41146)
# Assay: Agonistic activity determined by ability to stimulate GTP gamma S binding in comparison to nociceptin (N/OFQ)
# Design: concentration or dose not given beside the values
# T1 sequence (P41146 whole entry): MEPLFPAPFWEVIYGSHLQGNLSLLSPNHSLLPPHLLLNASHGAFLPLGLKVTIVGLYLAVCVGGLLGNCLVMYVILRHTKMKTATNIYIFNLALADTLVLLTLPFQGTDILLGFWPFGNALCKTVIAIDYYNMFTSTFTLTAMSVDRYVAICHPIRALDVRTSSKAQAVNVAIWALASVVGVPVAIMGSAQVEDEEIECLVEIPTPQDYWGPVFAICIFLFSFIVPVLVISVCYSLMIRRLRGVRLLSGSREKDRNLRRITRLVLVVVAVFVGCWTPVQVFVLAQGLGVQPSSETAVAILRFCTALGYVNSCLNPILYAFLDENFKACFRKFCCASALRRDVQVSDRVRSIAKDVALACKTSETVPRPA
row,SMILES,Activity
1,CN(C)C(=O)C(CCN1CCC(O)(c2cccc(C(F)(F)F)c2)CC1)(c1ccccc1)c1ccccc1,> 75%
2,COC(=O)C(CCN1CCC(O)(c2ccc(Cl)c(C(F)(F)F)c2)CC1)(c1ccccc1)c1ccccc1,> 75%
3,COC(=O)C(CCN1CCC(O)(c2cccc(C(F)(F)F)c2)CC1)(c1ccccc1)c1ccccc1,> 75%
4,OC1(c2cccc(C(F)(F)F)c2)CCN(CCC(c2ccccc2)c2ccccc2)CC1,> 75%
5,O=C(O)C(CCN1CCC(O)(c2cccc(C(F)(F)F)c2)CC1)(c1ccccc1)c1ccccc1,> 75%
6,CN(C)C(=O)C(CCN1CCC(O)(c2ccc(Cl)c(C(F)(F)F)c2)CC1)(c1ccccc1)c1ccccc1 [FLUPERAMIDE],> 75%
7,CN(C)C(=O)C(CCN1CCC(O)(c2ccc(Cl)cc2)CC1)(c1ccccc1)c1ccccc1 [LOPERAMIDE],> 75%
8,OC1(c2ccc(Cl)c(C(F)(F)F)c2)CCN(CCC(c2ccccc2)c2ccccc2)CC1,> 75%
9,O=C(O)C(CCN1CCC(O)(c2ccc(Cl)c(C(F)(F)F)c2)CC1)(c1ccccc1)c1ccccc1,> 75%
10,COC(=O)C(CCN1CCC(O)(c2ccc(Cl)cc2)CC1)(c1ccccc1)c1ccccc1,> 75%
11,O=C(O)C(CCN1CCC(O)(c2ccc(Cl)cc2)CC1)(c1ccccc1)c1ccccc1,> 75%

# Biological target: T1, Nociceptin receptor
# Assay: Partial agonistic activity determined by ability to stimulate GTP gamma S binding in comparison to nociceptin (N/OFQ)
row,SMILES,Activity
1,OC1(c2ccc(Cl)c(C(F)(F)F)c2)CCN(Cc2ccc(C(F)(F)F)cc2)CC1,> 10%
2,OC1(c2ccc(Cl)cc2)CCN(CCC(c2ccccc2)c2ccccc2)CC1,> 10%

# Biological target: Nociceptin receptor (Rattus norvegicus) (UniProt P35370)
# Sequence (P35370 whole entry): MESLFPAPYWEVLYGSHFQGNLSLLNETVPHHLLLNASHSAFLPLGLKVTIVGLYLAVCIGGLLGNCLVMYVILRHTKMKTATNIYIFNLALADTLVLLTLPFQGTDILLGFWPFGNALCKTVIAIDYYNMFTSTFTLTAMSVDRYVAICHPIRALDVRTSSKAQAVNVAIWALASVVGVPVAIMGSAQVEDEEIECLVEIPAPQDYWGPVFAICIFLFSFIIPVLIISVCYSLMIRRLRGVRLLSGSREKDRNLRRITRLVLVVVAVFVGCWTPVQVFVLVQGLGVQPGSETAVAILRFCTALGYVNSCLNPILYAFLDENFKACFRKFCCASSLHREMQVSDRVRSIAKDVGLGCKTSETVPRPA
# Assay: Partial Agonistic activity by its ability to stimulate NOP in comparison to DAMGO
# Assay type: functional
row,SMILES,Activity
1,OC1(c2ccc(Cl)cc2)CCN(CCC(c2ccccc2)c2ccccc2)CC1,> 10%

# Biological target: T1, Nociceptin receptor
# Assay: Binding affinity for opioid receptor like 1 expressed in HEK293 cells
# Assay type: cell-based
row,SMILES,Ki
1,CN(C)C(=O)C(CCN1CCC(O)(c2cccc(C(F)(F)F)c2)CC1)(c1ccccc1)c1ccccc1,505 nM
2,COC(=O)C(CCN1CCC(O)(c2ccc(Cl)c(C(F)(F)F)c2)CC1)(c1ccccc1)c1ccccc1,149 nM
3,COC(=O)C(CCN1CCC(O)(c2cccc(C(F)(F)F)c2)CC1)(c1ccccc1)c1ccccc1,78 nM
4,OC1(c2ccc(Cl)cc2)CCN(CCC(c2ccccc2)c2ccccc2)CC1,372 nM
5,[O-][N+]1(CCC(c2ccccc2)c2ccccc2)CCC(O)(c2cccc(C(F)(F)F)c2)CC1 (stereo not drawn),> 10000 nM
6,O=C(O)C(CCN1CCC(O)(c2cccc(C(F)(F)F)c2)CC1)(c1ccccc1)c1ccccc1,> 10000 nM
7,CN(C)C(=O)C(CCN1CCC(O)(c2ccc(Cl)c(C(F)(F)F)c2)CC1)(c1ccccc1)c1ccccc1 [FLUPERAMIDE],2150 nM
8,CN(C)C(=O)C(CCN1CCC(O)(c2ccc(Cl)cc2)CC1)(c1ccccc1)c1ccccc1 [LOPERAMIDE],> 10000 nM
9,[O-][N+]1(CCC(c2ccccc2)c2ccccc2)CCC(O)(c2ccc(Cl)c(C(F)(F)F)c2)CC1 (stereo not drawn),> 10000 nM
10,O=C(O)C(CCN1CCC(O)(c2ccc(Cl)c(C(F)(F)F)c2)CC1)(c1ccccc1)c1ccccc1,> 10000 nM
11,COC(=O)C(CCN1CCC(O)(c2ccc(Cl)cc2)CC1)(c1ccccc1)c1ccccc1,590 nM
12,O=C(O)C(CCN1CCC(O)(c2ccc(Cl)cc2)CC1)(c1ccccc1)c1ccccc1,> 10000 nM
13,[O-][N+]1(Cc2ccc3ccccc3c2)CCC(O)(c2ccc(Cl)c(C(F)(F)F)c2)CC1 (stereo not drawn),> 10000 nM

# Biological target: Nociceptin receptor (Rattus norvegicus) (UniProt P35370)
# Assay: Agonistic activity by its ability to stimulate NOP in comparison to DAMGO
# Assay type: functional
row,SMILES,Activity
1,CN(C)C(=O)C(CCN1CCC(O)(c2cccc(C(F)(F)F)c2)CC1)(c1ccccc1)c1ccccc1,> 75%
2,COC(=O)C(CCN1CCC(O)(c2ccc(Cl)c(C(F)(F)F)c2)CC1)(c1ccccc1)c1ccccc1,> 75%
3,COC(=O)C(CCN1CCC(O)(c2cccc(C(F)(F)F)c2)CC1)(c1ccccc1)c1ccccc1,> 75%
4,OC1(c2cccc(C(F)(F)F)c2)CCN(CCC(c2ccccc2)c2ccccc2)CC1,> 75%
5,COC(=O)C(CCN1CCC(O)(c2ccc(Cl)cc2)CC1)(c1ccccc1)c1ccccc1,> 75%

# Biological target: Nociceptin receptor (Rattus norvegicus) (UniProt P35370)
# Assay: Partial agonistic activity by its ability to stimulate NOP in comparison to DAMGO
# Assay type: functional
row,SMILES,Activity
1,OC1(c2ccc(Cl)c(C(F)(F)F)c2)CCN(Cc2ccc3ccccc3c2)CC1,> 10%

# Biological target: Mu opioid receptor (Rattus norvegicus) (UniProt P33535)
# Sequence (P33535 whole entry, looked up): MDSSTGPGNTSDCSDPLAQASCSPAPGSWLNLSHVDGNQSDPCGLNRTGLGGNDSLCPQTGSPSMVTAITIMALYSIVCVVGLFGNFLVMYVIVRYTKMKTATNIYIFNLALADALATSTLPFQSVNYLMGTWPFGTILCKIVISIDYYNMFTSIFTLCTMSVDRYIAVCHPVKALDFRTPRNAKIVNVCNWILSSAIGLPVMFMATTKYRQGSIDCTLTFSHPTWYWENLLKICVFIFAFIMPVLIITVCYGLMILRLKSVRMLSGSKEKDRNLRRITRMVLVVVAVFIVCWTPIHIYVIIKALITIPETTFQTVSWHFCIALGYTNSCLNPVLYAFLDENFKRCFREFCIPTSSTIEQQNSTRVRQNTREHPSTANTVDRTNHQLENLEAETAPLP
# Assay: Partial agonistic activity by its ability to stimulate GTP gamma S binding in comparison to DAMGO
row,SMILES,Activity
1,OC1(c2ccc(Cl)c(C(F)(F)F)c2)CCN(CCC(c2ccccc2)c2ccccc2)CC1,> 10%

# Biological target: Mu-type opioid receptor (Homo sapiens, UniProt P35372)
# Sequence (P35372 whole entry): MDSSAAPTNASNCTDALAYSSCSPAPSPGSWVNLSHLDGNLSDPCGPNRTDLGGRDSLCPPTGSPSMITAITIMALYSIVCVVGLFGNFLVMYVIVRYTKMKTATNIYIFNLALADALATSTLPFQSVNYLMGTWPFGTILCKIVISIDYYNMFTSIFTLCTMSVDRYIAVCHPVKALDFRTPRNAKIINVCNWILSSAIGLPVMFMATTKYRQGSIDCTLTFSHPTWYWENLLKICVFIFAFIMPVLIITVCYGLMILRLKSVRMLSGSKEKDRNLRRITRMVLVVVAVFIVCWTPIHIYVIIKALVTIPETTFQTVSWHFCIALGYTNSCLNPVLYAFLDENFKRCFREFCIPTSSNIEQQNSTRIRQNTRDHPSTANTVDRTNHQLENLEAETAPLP
# Assay: Binding affinity for recombinant human mu-opioid receptor was determined by using [3H]- diprenophine radioligand
row,SMILES,Ki
1,CN(C)C(=O)C(CCN1CCC(O)(c2cccc(C(F)(F)F)c2)CC1)(c1ccccc1)c1ccccc1,0.16 nM
2,OC1(c2ccc(Cl)c(C(F)(F)F)c2)CCN(Cc2ccc(C(F)(F)F)cc2)CC1,104 nM
3,COC(=O)C(CCN1CCC(O)(c2ccc(Cl)c(C(F)(F)F)c2)CC1)(c1ccccc1)c1ccccc1,0.3 nM
4,COC(=O)C(CCN1CCC(O)(c2cccc(C(F)(F)F)c2)CC1)(c1ccccc1)c1ccccc1,0.11 nM
5,OC1(c2ccc(Cl)cc2)CCN(CCC(c2ccccc2)c2ccccc2)CC1,37 nM
6,[O-][N+]1(CCC(c2ccccc2)c2ccccc2)CCC(O)(c2cccc(C(F)(F)F)c2)CC1 (stereo not drawn),8130 nM
7,O=C(O)C(CCN1CCC(O)(c2cccc(C(F)(F)F)c2)CC1)(c1ccccc1)c1ccccc1,331 nM
8,CN(C)C(=O)C(CCN1CCC(O)(c2ccc(Cl)c(C(F)(F)F)c2)CC1)(c1ccccc1)c1ccccc1 [FLUPERAMIDE],0.11 nM
9,[O-][N+]1(CCC(c2ccccc2)c2ccccc2)CCC(O)(c2ccc(Cl)c(C(F)(F)F)c2)CC1 (stereo not drawn),> 10000 nM
10,O=C(O)C(CCN1CCC(O)(c2ccc(Cl)c(C(F)(F)F)c2)CC1)(c1ccccc1)c1ccccc1,489 nM
11,OC1(c2ccc(Cl)c(C(F)(F)F)c2)CCN(Cc2ccc3ccccc3c2)CC1,2.5 nM
12,COC(=O)C(CCN1CCC(O)(c2ccc(Cl)cc2)CC1)(c1ccccc1)c1ccccc1,0.23 nM
13,[O-][N+]1(Cc2ccc3ccccc3c2)CCC(O)(c2ccc(Cl)c(C(F)(F)F)c2)CC1 (stereo not drawn),> 10000 nM
14,N#Cc1ccc(CN2CCC(O)(c3ccc(Cl)c(C(F)(F)F)c3)CC2)cc1,> 10000 nM
